Activity calls are given as the source filed them. No cut-off for these calls is given here.
Key:
[1] = system: Radical scavenging activity; test: Effect on CumOOH-induced oxidative damage of herring sperm DNA assessed as reduction in 8-OHdG level; type: functional; set-up: scale not given: the % may be the effect or the level left; conditions: Clupea
[2] = system: Radical scavenging activity; test: Effect on glutathione/ferric ion-induced oxidative damage of herring sperm DNA assessed as reduction in 8-OHdG level; type: functional; set-up: scale not given: the % may be the effect or the level left; conditions: Clupea

Molecule	Activity [1]	Activity [2]
COc1cc(OC)c2c(c1)OC(c1ccc(O)c(O)c1)CS2 (configuration not stated)	30%	
VITAMIN E	61%	33%
COc1ccc(C2CSc3cc(O)ccc3O2)cc1 (configuration not stated)	inactive	
Oc1cc(O)c2c(c1)OC(c1ccc(O)c(O)c1)C(O)C2 (racemic)	32%	36%
Oc1cc(O)c2c(c1)OC(c1ccc(O)c(O)c1)CS2 (configuration not stated)	30%	82%
COc1ccc(C2CSc3c(O)cc(O)cc3O2)cc1 (configuration not stated)	inactive	Active
COc1ccc(C2CSc3ccc(O)cc3O2)cc1 (configuration not stated)	inactive	Active

Source: ChEMBL document CHEMBL1146934, “Polyhydroxylated 4-thiaflavans as multipotent antioxidants: protective effect on oxidative DNA damage in vitro” (Bioorg Med Chem Lett, 2006)
